Tests used:
Type in all cases: cell-based, human
PD-L1 (a PD-1 ligand) = assay: Surface expression of PD-L1; conditions: Donor CMV001 vs Donor BB008, FIG. 10
PD-L2 (a PD-1 ligand) = assay: Surface expression of PD-L2; conditions: Donor CMV001 vs Donor BB008, FIG. 11
PD-1 = PD-1 Taqman; conditions: for ΔCT (BB011) / ΔΔCT(BB011): Donor BB011; for ΔCT (BB011): No Pep 3.57; for ΔΔCT(BB011) / ΔΔCT(BB013) / ΔΔCT(BB008) / ΔΔCT(CMV001): relative to No Pep; for ΔCT(BB013) / ΔΔCT(BB013): Donor BB013; for ΔCT(BB013): No Pep 4.745; for ΔCT (BB008) / ΔΔCT(BB008): Donor BB008; for ΔCT (BB008): No Pep 6.4; for ΔCT(CMV001) / ΔΔCT(CMV001): Donor CMV001; for ΔCT(CMV001): No Pep 5.08
[1] = tested on: PD-1 (programmed cell death-1); assay: Surface expression of PD-1; conditions: Donor CMV001 vs Donor BB008, FIG. 9
Text: This correlates with latency versus infection in the two subjects.

[2] = tested on: CD4+ induced cells (antigen-stimulated T effector cells); assay: Proliferation assay of CD4+ induced cells (3H incorporation); conditions: for stimulation index: as compared to cells without peptide
Procedure: (§1) These experiments focus on confirming the in vitro recognition of the novel class I and class II CMV epitopes predicted to be strong MHC binders by validated computer algorithms using T cells from CMV-positive healthy donors. Phenotypical analysis of CD4+ T cell effectors included a marker of activation (CD69) as well as T cell inflammatory cytokines (TNFα, IFNγ, and IL-2). Functional analysis of CD4+ and CD8+ T cell effectors was measured by proliferative epitope-specific responses via ^3H incorporation and IFNγ expression measured by ELISA, respectively.
Wells are then pulsed with 1 μCi of ^3H for the last 18 hours. Proliferation is then measured by calculating the absorption of ^3H on a beta counter. PHA is a positive control while APCs alone are the negative control. This translates into stimulation indices of 30 and 45.8 in antigen-specific proliferation assays as compared to cells without peptide.
Antigen-stimulated T effector cells are incubated with autologous, irradiated total peripheral blood mononuclear cells for 96 hours. Wells are pulsed with 1 μCi of ^3H for the last 18 hours. Proliferation is then measured by calculating the absorption of ^3H on a beta counter. APCs alone are the negative control.
Data from the six donors SA001, SA005, SA006, BB006, BB008, CMV001, BB011, and BB013 are shown. No peptide versus 3DR (P<0.001); no peptide versus 4DR (P<0.05); 1DR versus 3DR (P<0.05); 2DR versus 3DR (P<0.01); and 3DR versus 6DR (P<0.05).

enriched CD4+ cells = assay: Intracellular IL-2 expression in enriched CD4+ cells; conditions: for expression of IL-2 as compared to no peptide: FIG. 2, in words; for expression of IL-2 in CD4+ cells: FIG. 2, day 17, cells without peptide 3.18%
Procedure: as §1
Enriched CD4+ cells are incubated with peptide-pulsed irradiated autologous PBMCs, restimulated with peptide on day 7, stimulated with low-dose IL-2 (20 U/ml) on day 9, and then evaluated for intracellular cytokine production on day 17. FIG. 2A illustrates no peptide, while FIGS. 2B and 2C show stimulation by peptides 1DR and 4DR, respectively.

CD4+ T cell effectors = assay: IFNg in CD4 cells (FACS); conditions: for immunogenicity (reflected by increased IFNg), CMV-infected subject vs healthy CMV+ subject: Donor CMV001 vs Donor BB008, FIG. 8; for IFNg stimulation (FACS data): over multiple HLA-type donors; for immunogenicity reflected by IFNg: six donors
Procedure: as §1

enriched CD4 cells = assay: Intracellular TNFα in CD4 cells (FACS); conditions: for immunogenicity (reflected by increased TNFα), CMV-infected subject vs healthy CMV+ subject: Donor CMV001 vs Donor BB008, FIG. 7; for TNFα synthesis as compared to control: FIG. 4, donors SA005 and SA006, in words; for TNFα stimulation (FACS data): over multiple HLA-type donors; for immunogenicity reflected by TNFα: six donors
Procedure: as §1
In addition, these cells are all chemokine receptor CCR7 negative, reflecting their T effector status.
Enriched CD4 cells are incubated with peptide-pulsed irradiated autologous peripheral blood mononuclear cells, restimulated with peptide on day 7, stimulated with low-dose IL-2 (20 U/ml) on day 10 and 14, and then evaluated for intracellular cytokine production on day 17.

CD8+ T cell effectors = assay: IFNγ expression measured by ELISA, CD8+ T cell effectors (class I peptides)
Procedure: as §1, with “As such, these” for “These”, “confirming that” for “confirming”
as §1

[3] = FIG. 1, 96 hours with autologous irradiated PBMCs, 3H last 18 hours
[4] = excluding CMV-infected subject (CMV001), FIG. 12
[5] = including CMV-infected subject (CMV001), FIG. 13

| Sequence | surface expression of PD-L1, CMV-infected subject vs healthy CMV+ subject (PD-L1 (a PD-1 ligand)) | surface expression of PD-L2, CMV-infected subject vs healthy CMV+ subject (PD-L2 (a PD-1 ligand)) | ΔCT (BB011) (PD-1) | ΔΔCT(BB011) (PD-1) | ΔCT(BB013) (PD-1) | ΔΔCT(BB013) (PD-1) | surface expression of PD-1, CMV-infected subject vs healthy CMV+ subject [1] | immunogenicity (reflected by increased IFNg), CMV-infected subject vs healthy CMV+ subject (CD4+ T cell effectors) | IFNg stimulation (FACS data) (CD4+ T cell effectors) | immunogenicity reflected by IFNg (CD4+ T cell effectors; [4]) | immunogenicity (reflected by increased TNFα), CMV-infected subject vs healthy CMV+ subject (enriched CD4 cells) | TNFα stimulation (FACS data) (enriched CD4 cells) | immunogenicity reflected by TNFα (enriched CD4 cells; [4]) | ΔCT (BB008) (PD-1) | ΔΔCT(BB008) (PD-1) | ΔCT(CMV001) (PD-1) | ΔΔCT(CMV001) (PD-1) | other results |
| --- | --- | --- | --- | --- | --- | --- | --- | --- | --- | --- | --- | --- | --- | --- | --- | --- | --- | --- |
| AGILARNLVPMVATV [6DR, human CMV pp65-derived class II peptide, Human (DRB1)] | more surface expression of PD-L1 | more surface expression of PD-L2 | 3.845 | 0.275 | 5.05 | 0.305 |  |  |  |  |  |  |  |  |  |  |  |  |
| DVYYTSAFVFPTKDV [4DR] | more surface expression of PD-L1 | more surface expression of PD-L2 | 3.345 | −0.225 | 4.57 | −0.175 | more surface expression of PD-1 | greater than in a healthy CMV+ subject | peptide-specific TNFα and IFNg stimulation | increased TNFα and IFNg | greater than in a healthy CMV+ subject | peptide-specific TNFα and IFNg stimulation | increased TNFα and IFNg | 1.185 | −5.215 | 1.165 | −3.915 | proliferation, counts per minute [2, 3]: 15,572 cpm; stimulation index ([2]; FIG. 1): 45.8; expression of IL-2 as compared to no peptide (enriched CD4+ cells): stimulate expression of IL-2; expression of IL-2 in CD4+ cells (enriched CD4+ cells): 15.13%; immunogenicity reflected by IFNg (CD4+ T cell effectors; [5]): increased TNFα and IFNg; TNFα synthesis as compared to control (enriched CD4 cells): stimulate TNFα synthesis; immunogenicity reflected by TNFα (enriched CD4 cells; [5]): increased TNFα and IFNg |
| HVRVSQPSLILVSQY [3DR, human CMV pp65-derived class II peptide, Human (DRB1)] |  |  | 4.08 | 0.51 | 5.995 | 1.25 | more surface expression of PD-1 | greater than in a healthy CMV+ subject | peptide-specific TNFα and IFNg stimulation | increased TNFα and IFNg | greater than in a healthy CMV+ subject | peptide-specific TNFα and IFNg stimulation | increased TNFα and IFNg | 5.635 | −0.765 | 2.545 | −2.535 | stimulation index ([2]; first of two CMV+ healthy donors (FIG. 3)): 83.05; proliferation, counts per minute ([2]; first of two CMV+ healthy donors (FIG. 3; presumably Donor SA005)): 30,231.67 cpm; stimulation index ([2]; second of two CMV+ healthy donors (FIG. 3)): 147.03; proliferation, counts per minute ([2]; second of two CMV+ healthy donors (FIG. 3; presumably Donor SA006)): 49,648.33 cpm; functional response (proliferation data) ([2]; summary in words): leads to a functional response; expression of TNFα in CD4 cells (enriched CD4 cells; donor not given): 34.58% |
| MISVLGPISGHVLKA [2DR, human CMV pp65-derived class II peptide, Human (DRB1)] |  |  | 2.94 | −0.63 | 5.26 | 0.515 |  |  |  |  |  |  |  | 5.525 | −0.875 | 5.005 | −0.075 |  |
| MSIYVYALPLKMLNI [1DR, human CMV pp65-derived class II peptide, Human (DRB1)] | more surface expression of PD-L1 | more surface expression of PD-L2 | 3.67 | 0.1 | 5.74 | 0.995 | more surface expression of PD-1 | greater than in a healthy CMV+ subject | peptide-specific TNFα and IFNg stimulation | increased TNFα and IFNg | greater than in a healthy CMV+ subject | peptide-specific TNFα and IFNg stimulation | increased TNFα and IFNg | 5.385 | −1.015 | 3.635 | −1.445 | proliferation, counts per minute [2, 3]: 10,201 cpm; stimulation index ([2]; FIG. 1): 30; expression of IL-2 as compared to no peptide (enriched CD4+ cells): stimulate expression of IL-2; expression of IL-2 in CD4+ cells (enriched CD4+ cells): 39.58%; immunogenicity reflected by IFNg (CD4+ T cell effectors; [5]): increased TNFα and IFNg; TNFα synthesis as compared to control (enriched CD4 cells): stimulate TNFα synthesis; expression of TNFα in CD4 cells (enriched CD4 cells; donor SA005): 15.9%; immunogenicity reflected by TNFα (enriched CD4 cells; [5]): increased TNFα and IFNg |
| SGKLFMHVTLGSDVE [5DR, human CMV pp65-derived class II peptide, Human (DRB1)] | more surface expression of PD-L1 | more surface expression of PD-L2 | 3.97 | 0.4 | 6.73 | 1.985 |  |  |  |  |  |  |  | 6.26 | −0.14 | 3.53 | −1.55 |  |
| YTSAFVFPT [CMV65182-190, human CMV pp65-derived class I peptide, Human (A2)] |  |  |  |  |  |  |  |  |  |  |  |  |  |  |  |  |  | immunogenicity among the class I peptides (CD8+ T cell effectors; IFNγ ELISA): most immunogenic; IFNγ measured by ELISA (mean) (CD8+ T cell effectors; class I peptides, T cells from CMV-positive healthy donors): 1999 pg/mL |
